Several values for one entry are separate records, joined by “and”; a condition that tells them apart may be missing. Identical values can stand only once. Like-named read-outs stand apart in the source and are kept apart here.
Key:
CK1δ = CK1δ (Homo sapiens, UniProt P48730); assay: Kinase assay CK1δ; type: biochemical
Protocol: (§1) Serial dilutions in DMSO were prepared. PLK1 was serially diluted 5-fold from 10 μM, yielding concentrations from 10000 nM to 0.00512 nM. Other targets were serially diluted 3-fold from 10 μM, yielding concentrations from 10000 nM to 0.5 nM. We have used two kinase assays: HTRF assay and ADG-Glo assay.
(§2) For HTRF Assay, 2× ATP/substrate solution and 2× kinase solution were prepared in kinase reaction buffer. Using an Echo 655, 50 nL of each diluted compound was transferred to a 384-well detection plate. The plate was centrifuged at 1000 rpm for 1 minute. 2.5 μL of 2× kinase solution was added to each well. The plate was incubated at 25°C for 10 minutes. 2.5 μL of 2× ATP/substrate solution was added to each well. The plate was centrifuged at 1000 rpm for 1 minute. The plate was incubated at 25°C for 40 minutes. 2× XL665 and antibody detection reagent were prepared in detection buffer. 5 μL of the prepared kinase detection reagent was added to each well. The plate was centrifuged at 1000 rpm for 1 minute. The plate was incubated at 25°C for 1 hour. Fluorescence signals at 620 nm (Cryptate) and 665 nm (XL665) were measured using a multifunction plate reader.
(§3) For ADP-Glo Assay, 2× ATP/substrate solution and 2× kinase solution were prepared in kinase reaction buffer. […] Luminescence signals were measured using a multifunction plate reader.

[1] = Pharmacokinetics in PSN1 tumor CDX model, M-NSG mice; type: in vivo; details: female, mouse, serum; PSN1 tumor-bearing M-NSG mice, oral, 60 mg/kg; read-out: T1/2 in blood (converted)
Protocol: (§4) For in vivo PK/PD studies, a PSN1 tumor model was established in female M-NSG (NOD.Cg-Prkdc^scidIl2rg^em1Smoc ) mice, which are severely immunodeficient mice lacking the interleukin 2 receptor gamma chain on a NOD.Cg-Prkdc^scid background, at Shanghai Model Organisms (Shanghai, China). Briefly, 5 × 10^6 PSN1 cells were inoculated subcutaneously into each M-NSG mouse. Once the tumors reached approximately 500 mm³, compounds were administered orally at various dosages. For PK studies, blood samples were collected at 0, 0.25, 0.5, 1, 2, 6, and 24 hours post-dose. The sera from blood were then obtained and stored at -70°C. For PD studies, tumors were harvested 2 hours after dosing and stored at -70°C.The serum and tumor samples were then transported to PRECEDO (Hefei, Anhui, China) for further PK/PD studies.
For PK studies, serum and tumor samples were processed with the internal standard solution. Serum samples were centrifuged and mixed directly, while tumor samples were homogenized first. Supernatants were prepared for LC-MS/MS analysis. Compound concentrations were determined using LC-MS/MS with tolbutamide as the internal standard, employing a reverse-phase column and ESI on a tandem quadrupole mass spectrometer.

DYRK3 = DYRK3 (Homo sapiens, UniProt O43781); assay: Kinase assay DYRK3; type: biochemical
Chain of DYRK3 (O43781 whole entry, species assumed): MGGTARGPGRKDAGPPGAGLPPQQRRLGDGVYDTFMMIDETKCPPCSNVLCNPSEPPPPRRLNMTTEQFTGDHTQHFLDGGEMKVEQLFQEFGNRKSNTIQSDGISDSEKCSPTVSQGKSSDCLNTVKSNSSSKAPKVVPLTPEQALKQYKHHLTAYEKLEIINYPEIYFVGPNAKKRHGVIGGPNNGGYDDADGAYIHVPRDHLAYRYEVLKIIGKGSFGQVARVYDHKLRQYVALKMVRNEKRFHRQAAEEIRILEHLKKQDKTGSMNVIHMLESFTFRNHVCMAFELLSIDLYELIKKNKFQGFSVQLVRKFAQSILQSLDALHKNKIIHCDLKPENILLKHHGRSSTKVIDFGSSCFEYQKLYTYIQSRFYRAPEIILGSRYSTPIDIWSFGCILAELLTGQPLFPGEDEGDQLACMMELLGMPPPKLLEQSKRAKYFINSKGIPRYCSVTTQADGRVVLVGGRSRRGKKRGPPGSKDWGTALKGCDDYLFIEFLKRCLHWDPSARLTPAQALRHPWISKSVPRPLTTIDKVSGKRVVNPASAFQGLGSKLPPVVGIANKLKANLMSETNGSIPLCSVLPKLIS
Protocol: as §1, §2, §3

[2] = Caco-2 permeability assay; type: in vitro ADME; details: for Permeability classification: Caco-2, by comparing Propranolol, Digoxin, Prazosin; for recovery at 2 h, 5 μM / Papp A→B at 2 h, 5 μM / Papp B→A at 2 h, 5 μM: human; for Papp A→B at 2 h, 5 μM / Papp B→A at 2 h, 5 μM: Caco-2, 5 μM
Protocol: Caco-2 cells were cultured in 10% FBS DMEM for 14-21 days before assays. […] HBSS was added to the opposite chamber. After 2 hours incubation at 37°C, samples were analyzed by LC-MS/MS. Fluorescein leakage was tested by adding 100 μM fluorescein to the upper chamber and measuring fluorescence after 30 minutes.

PSN-1 CDX model = assay: PSN-1 CDX model, tumor growth inhibition after 4-day dosing; type: in vivo, M-NSG mice; details: for TGI / Tumor volume Day 4: 4-day dosing; for Tumor volume Day 0: baseline
Protocol: as §4
(§5) TGI was calculated as follows.

CLK1 = CLK1 (Homo sapiens, UniProt P49759); assay: Kinase assay CLK1; type: biochemical
Chain of CLK1 (P49759 whole entry): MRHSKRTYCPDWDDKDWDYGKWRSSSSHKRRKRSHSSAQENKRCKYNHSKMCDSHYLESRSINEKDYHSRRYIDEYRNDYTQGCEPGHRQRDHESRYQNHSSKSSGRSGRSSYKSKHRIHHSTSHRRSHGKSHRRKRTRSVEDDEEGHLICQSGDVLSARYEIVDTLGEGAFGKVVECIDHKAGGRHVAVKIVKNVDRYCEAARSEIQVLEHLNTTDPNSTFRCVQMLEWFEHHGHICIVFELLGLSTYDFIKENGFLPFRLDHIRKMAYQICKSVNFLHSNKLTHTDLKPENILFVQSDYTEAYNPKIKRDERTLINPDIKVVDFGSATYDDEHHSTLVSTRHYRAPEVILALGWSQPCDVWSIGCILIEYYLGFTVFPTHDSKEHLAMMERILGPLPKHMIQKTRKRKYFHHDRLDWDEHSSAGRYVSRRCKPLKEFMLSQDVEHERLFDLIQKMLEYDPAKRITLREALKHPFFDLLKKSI
Protocol: as §1, §2, §3

CLK2 = CLK2 (Homo sapiens, UniProt P49760); assay: Kinase assay CLK2; type: biochemical
Chain of CLK2 (P49760 whole entry, species assumed): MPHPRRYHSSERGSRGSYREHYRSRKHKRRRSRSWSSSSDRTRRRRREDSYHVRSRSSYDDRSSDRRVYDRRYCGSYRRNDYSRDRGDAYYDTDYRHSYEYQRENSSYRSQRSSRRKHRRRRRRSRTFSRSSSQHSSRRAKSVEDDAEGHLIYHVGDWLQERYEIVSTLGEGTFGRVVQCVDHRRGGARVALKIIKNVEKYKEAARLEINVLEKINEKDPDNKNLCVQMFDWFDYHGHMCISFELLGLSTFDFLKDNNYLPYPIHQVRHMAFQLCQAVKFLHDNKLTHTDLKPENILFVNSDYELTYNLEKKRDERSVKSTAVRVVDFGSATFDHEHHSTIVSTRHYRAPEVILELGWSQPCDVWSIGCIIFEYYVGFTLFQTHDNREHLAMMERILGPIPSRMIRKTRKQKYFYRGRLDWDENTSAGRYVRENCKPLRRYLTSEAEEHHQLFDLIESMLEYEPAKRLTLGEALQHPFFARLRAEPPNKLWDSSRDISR
Protocol: as §1, §2, §3

HCT 116 CDX model = assay: HCT 116 CDX model; type: in vivo, BALB/c nude mouse; details: for Tumor growth: BALB/c nude mice; for Mice died: BALB/c nude, 8 mice/group
Protocol: These studies were performed at Yikon Medical (Beijing, China). Cancer cell line HCT 116 or BxPC-3 were cultured in 10% FBS RPMI-1640 medium plus penicillin, streptomycin, and glutamine at 37°C and 5% CO2 until reaching confluency. Cells were then prepared for inoculation. 5×10⁷ cells/mL cells in 100 µL were inoculated subcutaneously into the right flank of each female BALB/c nude mouse for HCT 116 cell line or female NOD SCID mouse for BxPC-3 cell line. […] […] Mice were dosed at least 10 days and were monitored for 30 days.
as §5

TSSK1 = TSSK1 (Homo sapiens, UniProt Q9BXA7); assay: Kinase assay TSSK1; type: biochemical
Chain of TSSK1 (Q9BXA7 whole entry, species assumed): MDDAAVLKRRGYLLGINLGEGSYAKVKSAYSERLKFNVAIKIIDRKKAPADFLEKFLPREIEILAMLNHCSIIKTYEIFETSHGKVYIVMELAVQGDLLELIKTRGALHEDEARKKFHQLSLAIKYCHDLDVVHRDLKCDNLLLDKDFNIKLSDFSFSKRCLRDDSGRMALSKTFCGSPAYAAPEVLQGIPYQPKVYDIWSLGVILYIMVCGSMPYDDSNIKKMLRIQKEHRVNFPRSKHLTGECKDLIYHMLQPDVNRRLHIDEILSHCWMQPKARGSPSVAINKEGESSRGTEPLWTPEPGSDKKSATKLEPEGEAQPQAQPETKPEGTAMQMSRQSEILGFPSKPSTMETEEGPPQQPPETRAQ
Protocol: as §1, §2, §3

[3] = Caco-2, Caco-2, A-B, read-out: Recovery A-B%
[4] = Caco-2, Caco-2, B-A, read-out: Recovery B-A%

Chain of CK1δ (P48730 whole entry): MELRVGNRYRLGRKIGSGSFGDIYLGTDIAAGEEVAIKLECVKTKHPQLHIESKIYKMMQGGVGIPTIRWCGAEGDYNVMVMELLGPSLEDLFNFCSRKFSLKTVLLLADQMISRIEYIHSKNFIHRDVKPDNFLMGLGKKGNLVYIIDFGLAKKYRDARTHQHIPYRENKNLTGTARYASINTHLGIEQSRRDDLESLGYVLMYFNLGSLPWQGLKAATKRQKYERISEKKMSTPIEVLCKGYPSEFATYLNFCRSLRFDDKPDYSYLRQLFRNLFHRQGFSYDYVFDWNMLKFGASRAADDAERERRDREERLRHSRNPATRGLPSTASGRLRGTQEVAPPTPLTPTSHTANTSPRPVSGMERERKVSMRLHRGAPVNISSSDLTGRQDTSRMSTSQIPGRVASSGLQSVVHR

Row | Compound | IC50 (CK1δ) [nM] | half-life [1] [h] | IC50 (DYRK3) [nM] | Permeability classification [2] | recovery at 2 h, 5 μM [2, 3] [%] | recovery at 2 h, 5 μM [2, 4] [%] | Papp A→B at 2 h, 5 μM [2] [×10⁻⁶ cm/s] | Papp B→A at 2 h, 5 μM [2] [×10⁻⁶ cm/s] | TGI (PSN-1 CDX model; 15 mg/kg) [%] | Tumor volume Day 4 (PSN-1 CDX model; 15 mg/kg) [mm^3] | Tumor volume Day 0 (PSN-1 CDX model; 15 mg/kg) [mm^3] | TGI (PSN-1 CDX model; 30 mg/kg) [%] | Tumor volume Day 4 (PSN-1 CDX model; 30 mg/kg) [mm^3] | Tumor volume Day 0 (PSN-1 CDX model; 30 mg/kg) [mm^3] | TGI (PSN-1 CDX model; 60 mg/kg) [%] | Tumor volume Day 4 (PSN-1 CDX model; 60 mg/kg) [mm^3] | Tumor volume Day 0 (PSN-1 CDX model; 60 mg/kg) [mm^3] | IC50 (CLK1) [nM] | IC50 (CLK2) [nM] | Tumor growth (HCT 116 CDX model) | also measured
1 | CN1CCN(c2ccc(OC(F)(F)F)c(Nc3ncc4c(n3)-c3c(c(C(N)=O)nn3CCO)CC4)c2)CC1 [NMS-P937] | 59.3 | 2.4 | 114 | medium permeability | 71.6 | 93.3 | 6.1 | 34.2 | 51.3 | 166.43 ± 5.79 | 119.66 ± 1.67 | 68.1 | 149.94 ± 4.21 | 119.38 ± 2.09 | 81.2 | 137.49 ± 5.16 | 119.42 ± 2.14 | 235 | 37 | inhibited the growth of tumors in a dose-dependent manner | Body weight (HCT 116 CDX model; 60 mg/kg): significant loss of body weight; Mice died (HCT 116 CDX model; 30 mg/kg, 30 mg/kg): one mouse died and 1/8; Mice died (HCT 116 CDX model; 60 mg/kg, 60 mg/kg): three mice died and 3/8; IC50 (TSSK1): 77.8 nM
2 | [2H]C1([2H])N(C)C([2H])([2H])C([2H])([2H])N(c2ccc(OC(F)(F)F)c(Nc3ncc4c(n3)-c3c(c(C(N)=O)nn3CCO)CC4)c2)C1([2H])[2H] [PR00012] | 51.8 | 5.5 | 112 | medium permeability | 79.7 | 89.7 | 5.2 | 34.7 | 55.5 | 162.12 ± 4.11 | 119.44 ± 1.78 | 75.0 | 143.49 ± 5.64 | 119.48 ± 1.95 | 91.2 | 127.93 ± 1.60 | 119.48 ± 1.72 | 196 | 24.8 | inhibited the growth of tumors in a dose-dependent manner | Mice died (HCT 116 CDX model; 30 mg/kg): No mice died; Mice died (HCT 116 CDX model; 60 mg/kg, 60 mg/kg): one mouse died and 1/8; IC50 (TSSK1): 53.2 nM

Reference: publication PMC11968394, “The effect of deuterated PLK1 inhibitor on its safety and efficacy in vivo” (Frontiers in Oncology, 2025)
